From patent publication US7264811B2, “Purified active HCV NS2/3 protease” (priority 2000, dated 2007)
Where a SMILES comes first, the peptide text is derived from it.

Biological target: T1, NS2/3 protease (Hepatitis C virus genotype 1b, UniProt P26663)
T1 construct: In a well defined assay system using purified NS2/3 (904-1206) and an optimized cleavage buffer; made in house; host or cells: E. coli BL21(DE3)pLysS
Experiment: biochemical
Parameters: species or system Hepatitis C virus (HCV) genotype 1b
Conditions: for trans-cleavage of the peptide by NS2/3 protease: identical assay conditions, data not shown
Method: NS2/3 protease cleavage-site derived peptides were evaluated as potentially competing substrates (Table 1). NS2/3 protease cleavage-site derived peptides and NS4A-derived peptides were synthesized in-house using the standard solid-phase methodology or were made by Multiple Peptide Systems (San Diego, Calif.). Various concentrations of peptides were pre-incubated with 0.54 μM NS2/3 protease for 30 min at 23° C. in 50 mM Hepes, pH 7.0, and 50% (w/v) glycerol. The autocleavage reaction was initiated by addition of n-dodecyl-β-D-maltoside to a final concentration of 0.5%. The final DMSO content never exceeded 5% (v/v). The resulting mixture was then incubated for 3 h at 23° C. The reaction was stopped and quantified.

Compound | IC50 | trans-cleavage of the peptide by NS2/3 protease
CC[C@H](C)[C@H](NC(=O)[C@@H]1CCCN1C(=O)[C@H](C)NC(=O)[C@H](CC(C)C)NC(=O)[C@H](CC(C)C)NC(=O)[C@H](CCCNC(=N)N)NC(=O)[C@H](Cc1c[nH]c2ccccc12)NC(=O)CNC(=O)[C@H](CCC(N)=O)NC(=O)CNC(=O)[C@H](CCC(=O)O)NC(=O)[C@H](Cc1ccccc1)NC(=O)[C@@H](N)CO)C(=O)N[C@H](C(=O)N[C@@H](C)C(=O)N[C@@H](Cc1ccc(O)cc1)C(=O)N[C@@H](CO)C(=O)N[C@@H](CCC(N)=O)C(=O)N[C@@H](CCC(N)=O)C(=O)N[C@H](C(=O)O)[C@@H](C)O)[C@@H](C)O [Peptide 1, SFEGQGWRLL-APITAYSQQT] | 270 µM | no trans-cleavage
CC(C)C[C@H](NC(=O)[C@H](CC(C)C)NC(=O)[C@H](CCCNC(=N)N)NC(=O)[C@H](Cc1c[nH]c2ccccc12)NC(=O)CNC(=O)[C@H](CCC(N)=O)NC(=O)CNC(=O)[C@H](CCC(=O)O)NC(=O)[C@H](Cc1ccccc1)NC(=O)[C@@H](N)CO)C(=O)O [Peptide 2, SFEGQGWRLL] (H-SFEGQGWRLL-OH; N-terminus and C-terminus assumed) | 90 µM | 
CC[C@H](C)[C@H](NC(=O)[C@@H]1CCCN1C(=O)[C@H](C)N)C(=O)N[C@H](C(=O)N[C@@H](C)C(=O)N[C@@H](Cc1ccc(O)cc1)C(=O)N[C@@H](CO)C(=O)N[C@@H](CCC(N)=O)C(=O)N[C@@H](CCC(N)=O)C(=O)N[C@H](C(=O)O)[C@@H](C)O)[C@@H](C)O [Peptide 3, APITAYSQQT] (H-APITAYSQQT-OH) | > 1000 µM | 
CC[C@H](C)[C@H](NC(=O)[C@@H]1CCCN1C(=O)[C@H](C)NC(=O)[C@H](CC(C)C)NC(=O)[C@H](CC(C)C)NC(=O)[C@H](CCCNC(=N)N)NC(=O)[C@H](Cc1c[nH]c2ccccc12)NC(=O)CNC(=O)[C@@H](N)CCCCN)C(=O)N[C@H](C(=O)N[C@@H](C)C(=O)N[C@@H](Cc1ccc(O)cc1)C(=O)O)[C@@H](C)O [Peptide 4, KGWRLL-APITAY] | 630 µM | no trans-cleavage
CC[C@H](C)[C@H](NC(=O)[C@@H]1CCCN1C(=O)[C@H](C)N)C(=O)N[C@H](C(=O)N[C@@H](C)C(=O)N[C@@H](Cc1ccc(O)cc1)C(=O)O)[C@@H](C)O [Peptide 5, APITAY] (H-APITAY-OH) | 1000 µM | 
